Reference: US20250177537A1, “AN ANTIBIOTIC, METHOD OF PREPARATION AND METHOD OF TREATMENT THEREOF” (National Taiwan University, priority 2023, published 2025)
≈ marks a conversion by molar mass, not a printed value. Like-named read-outs stand apart in the source and are kept apart here. Blank lines part the entries; values can stand above or below the compound they belong to. Bridge positions count the residues as written; N and C are the ends. Square brackets hold non-standard residues; d marks the D form. Peptide text beside a SMILES is read from it. * marks the point of attachment. d(aThr) = C[C@@H](O)[C@@H](N)C(=O)O; Palmitoyl = CCCCCCCCCCCCCCCC(=O)*; dPip = O=C(O)[C@H]1CCCCN1; hSer = N[C@@H](CCO)C(=O)O; Dap = NC[C@H](N)C(=O)O

Assays:
Bacillus subtilis [1] = conditions: for MIC: no PBA; for antimicrobial activity: absence of PBA; for PBA dependence of bacterial growth suppression: with vs without PBA
Protocol: We then investigated the boron dependence of B1 by determining the MIC of B1 across […] of PBA concentrations (0.5 μg/mL to 100 μg/mL, FIG. 4B).

HEK293T cells = test: cells; assay type: cell-based; conditions: 24 h
Protocol: HEK293T cells were cultured in Dulbecco's Modified Eagle's Medium supplemented with 10% fetal bovine serum and 1% Antibiotic antimycotic at 37° C. under humidified atmosphere and 5% CO2. Cytotoxicity assays began by seeding 2×10^4 HEK293T cells per well in a 96-well plate. Cells were given 20 to 24 h to adhere, washed with fresh medium, and then a 2-fold dilution series of the compounds of interest were added. The highest concentration tested for S1, B1, and PBA were 128, 128, and 1,280 μg/mL, respectively; for the B1-plus-PBA series, the PBA concentration was held constant at 5 μg/mL while the B1 concentration varied. After incubation for 24 h, the medium was discarded, the cells rinsed with PBS buffer, and 100 μL of 0.5 mg/mL MTT in […] was added to each well. The plate was incubated for 2 h before discarding the MTT solution. The cells were wash with PBS, and then the resulting purple crystals were dissolved by DMSO (100 μL per well). Absorbance at 570 nm for each well was recorded, and cell viability (%) was calculated as the ratio of the absorbance the compound-treated well vs. the no-compound well. This assay was performed in triplicate.

B. cereus = test: Activity spectrum MIC; assay type: cell-based; conditions: PBA 50 μg/mL
E. faecalis = test: Activity spectrum MIC; assay type: cell-based; conditions: PBA 50 μg/mL
Rhodococcus hoagii = test: Activity spectrum MIC; assay type: cell-based; conditions: PBA 50 μg/mL
Staphylococcus species = test: Activity spectrum MIC; assay type: cell-based; conditions: PBA 50 μg/mL
Streptococcus species = test: Activity spectrum MIC; assay type: cell-based; conditions: PBA 50 μg/mL
Escherichia coli = test: Activity spectrum MIC; assay type: cell-based; conditions: PBA 50 μg/mL
Pseudomonas aeruginosa = test: Activity spectrum MIC; assay type: cell-based; conditions: PBA 50 μg/mL
[2] = system: methicillin-resistant strains (MRSA); test: Activity spectrum MIC; assay type: cell-based, Staphylococcus; conditions: PBA 50 μg/mL
[3] = system: vancomycin-resistant strains (VRE); test: Activity spectrum MIC; assay type: cell-based, Enterococcus; conditions: PBA 50 μg/mL
[4] = 31P NMR monitoring of complex formation; assay type: binding; conditions: B1/PBA/C10P 1:2:1, 10% D2O
Protocol: NMR experiments were conducted on a Bruker AVIII 400 (400 MHZ) spectrometer. Chemical shifts (δ) are relative to tetramethylsilane, boric acid, and phosphoric acid for ^1H, ^11B, and ^31P spectra, respectively. The ^11B spectrum of PBA (20 μL, 10.0 mg/mL) in 10% D2O (550 μL) was first obtained. Next, C10P (17 μL, 16 mg/mL) was added directly into the NMR tube, and both the ^11B and ^31P spectra were obtained. B1 (1.2 mg, powder) was then added, followed spectra acquisition. Finally, CaCl2) was added to the solution in the NMR tube, so that the final calcium concentration is ˜5 mM. Note that the ^31P spectrum of C10P alone was collected separately.
Mass spectrometry (MS) and nuclear magnetic resonance (NMR) offered additional evidence of complex formation at the molecular level. High-resolution native electrospray ionization mass spectrometry (HR-NESI-MS) is commonly used to study noncovalent interactions.^[15] Using HR-NESI-MS, we observed the expected m/z for binary, ternary, and quaternary complexes at both the positive and negative modes (FIGS. 5B and 5C, FIGS. 15-18 and FIGS. 23-24). We then performed phosphorous (^31P) and boron (^11B) NMR to monitor the complex formation process. […] When B1 was added to the C10P/PBA mixture, no phosphorous signal could be detected at δ 3 or greater, and two new peaks at δ 0.4 and 0.0 appeared. […]

Bacillus subtilis [5] = test: Growth inhibitory zone assay; assay type: cell-based; conditions: mixed with B1 at 50 mM each, 12 hours, room temperature
Protocol: The antimicrobial activities of our peptide (B1) in combination with various boron species were tested by the growth inhibitory zone assay (FIG. 26). B1 was mixed with various boron species at 50 mM each (final concentration). These mixtures were then spotted on a lawn of Bacillus subtilis. After 12 hours of incubation at room temperature, combinations effective at inhibiting bacterial growth would appear as a circular zone.

- MIC (Bacillus subtilis [1]; [Ca2+]=0.5 mM): 16 µg/mL (≈ 12.7 µM)
- MIC (Bacillus subtilis [1]; calcium 5 mM): 4 µg/mL (≈ 3.17 µM)
SMILES: CCCCCCCCCCCCCCCC(=O)N[C@@H](CC(=O)O)C(=O)N[C@H]1CNC(=O)[C@@H]2CCCN2C(=O)[C@H]([C@@H](C)CC)NC(=O)[C@@H]([C@@H](C)O)NC(=O)CNC(=O)[C@H](CC(=O)O)NC(=O)CNC(=O)[C@H](CC(=O)O)NC(=O)CNC(=O)[C@H]2CCCCN2C1=O [S1, reference compound] (Palmitoyl-D[Dap][dPip]GDGDG[d(aThr)]IP; lactam 2-C (inferred))
- potency in the presence of PBA (Bacillus subtilis [1]; PBA 100 μg/mL (0.82 mM)): dramatically decreased

SMILES: CCCCCCCCCCCCCCCC(=O)N[C@@H](CO)C(=O)N[C@H]1CNC(=O)[C@@H]2CCCN2C(=O)[C@H]([C@@H](C)CC)NC(=O)[C@@H]([C@@H](C)O)NC(=O)CNC(=O)[C@H](CO)NC(=O)CNC(=O)[C@H](CC(=O)O)NC(=O)CNC(=O)[C@H]2CCCCN2C1=O [B1] (Palmitoyl-S[Dap][dPip]GDGSG[d(aThr)]IP; lactam 2-C)
- dependence of antibacterial activity on calcium (Bacillus subtilis [1]; LB, PBA 50 μg/mL (0.41 mM), FIG. 4A): completely independent of calcium
- antimicrobial activity (Bacillus subtilis [1]; no calcium supplements): none of them were active
- response of antimicrobial activity to varying calcium concentration (Bacillus subtilis [1]; fixed PBA 100 μg/mL (0.82 mM)): no change
- antimicrobial activity when no calcium was added (Bacillus subtilis [1]; fixed PBA 100 μg/mL (0.82 mM), no calcium added): equally effective
- PBA dependence of bacterial growth suppression (Bacillus subtilis [1]): only able to suppress bacterial growth in the presence of PBA
- IC50 (HEK293T cells): greater than 128 μg/mL
- growth inhibition (B. cereus): inhibited the growth
- growth inhibition (E. faecalis): inhibited the growth
- growth inhibition (Rhodococcus hoagii): inhibited the growth
- growth inhibition (Staphylococcus species): inhibited the growth
- growth inhibition (Streptococcus species): inhibited the growth
- antibacterial activity (Escherichia coli): no activity
- antibacterial activity (Pseudomonas aeruginosa): no activity
- susceptibility [2]: similarly susceptible
- susceptibility [3]: similarly susceptible
- C10P sequestration [4]: sequestered all C10P

SMILES: OB(O)c1cc(C(F)(F)F)cc(C(F)(F)F)c1 [3,5-(bis(trifluoromethyl)phenyl) boronic acid]
- growth inhibitory zone, boron species in combination with B1 (Bacillus subtilis [5]): effective

- effect of calcium concentration on MIC (Bacillus subtilis [1]; calcium 5 to 0.5 mM, PBA present): unaffected
SMILES: CCCCCCCCCCCCCCCC(=O)N[C@@H](CCO)C(=O)N[C@H]1CNC(=O)[C@@H]2CCCN2C(=O)[C@H]([C@@H](C)CC)NC(=O)[C@@H]([C@@H](C)O)NC(=O)CNC(=O)[C@H](CO)NC(=O)CNC(=O)[C@H](CC(=O)O)NC(=O)CNC(=O)[C@H]2CCCCN2C1=O [B4] (Palmitoyl-[hSer][Dap][dPip]GDGSG[d(aThr)]IP; lactam 2-C)
- antimicrobial activity (Bacillus subtilis [1]; 5 mM calcium): weak antimicrobial activity
- antimicrobial activity (Bacillus subtilis [1]; no calcium supplements): none of them were active

SMILES: CSc1ccc(B(O)O)cc1 [4-(methylthio) phenylboronic acid]
- growth inhibitory zone, boron species in combination with B1 (Bacillus subtilis [5]): effective

SMILES: Cc1ccc(B(O)O)cc1 [4-tolylboronic acid]
- growth inhibitory zone, boron species in combination with B1 (Bacillus subtilis [5]): effective

SMILES: OB(O)c1cccnc1 [3-pyridylboronic acid]
- growth inhibitory zone, boron species in combination with B1 (Bacillus subtilis [5]): effective

SMILES: O=Cc1ccccc1B(O)O [2-formylphenylboronic acid]
- growth inhibitory zone, boron species in combination with B1 (Bacillus subtilis [5]): effective

SMILES: Nc1ccc(B(O)O)cc1 [4-aminophenylboronic acid]
- growth inhibitory zone, boron species in combination with B1 (Bacillus subtilis [5]): effective

SMILES: OB(O)c1ccc(F)cc1 [4-fluorophenylboronic acid]
- growth inhibitory zone, boron species in combination with B1 (Bacillus subtilis [5]): effective

SMILES: CCCCCCCCCCCCCCCC(=O)N[C@@H](CO)C(=O)N[C@H]1CNC(=O)[C@@H]2CCCN2C(=O)[C@H]([C@@H](C)CC)NC(=O)[C@@H]([C@@H](C)O)NC(=O)CNC(=O)[C@H](CCO)NC(=O)CNC(=O)[C@H](CC(=O)O)NC(=O)CNC(=O)[C@H]2CCCCN2C1=O [B3, Ser-Dap-Pip-Gly-Asp-Gly-Hse-Gly-Thr-Ile-Pro] (Palmitoyl-S[Dap][dPip]GDG[hSer]G[d(aThr)]IP; lactam 2-C)
- antimicrobial activity (Bacillus subtilis [1]; no calcium supplements): none of them were active
- PBA dependence of bacterial growth suppression (Bacillus subtilis [1]): only able to suppress bacterial growth in the presence of PBA

SMILES: Cc1cc(C)cc(B(O)O)c1 [3,5-dimethylphenylboronic acid]
- growth inhibitory zone, boron species in combination with B1 (Bacillus subtilis [5]): effective

SMILES: OB(O)c1cccc(O)c1 [3-hydroxylphenylboronic acid]
- growth inhibitory zone, boron species in combination with B1 (Bacillus subtilis [5]): effective

SMILES: OB(O)c1ccccc1 [PBA, phenylboronic acid, reference compound]
- IC50 (HEK293T cells; Homo sapiens, HEK-293T): > 128 µg/mL
- growth inhibitory zone, boron species in combination with B1 (Bacillus subtilis [5]): effective

SMILES: OB(O)c1ccncc1 [4-pyridylboronic acid]
- growth inhibitory zone, boron species in combination with B1 (Bacillus subtilis [5]): effective

SMILES: N#Cc1ccc(B(O)O)cc1 [4-cyanophenylboronic acid]
- growth inhibitory zone, boron species in combination with B1 (Bacillus subtilis [5]): effective

SMILES: OB(O)c1ccc(O)cc1 [4-hydroxylphenylboronic acid]
- growth inhibitory zone, boron species in combination with B1 (Bacillus subtilis [5]): effective

SMILES: COc1ccc(B(O)O)cc1 [4-methoxyphenylboronic acid]
- growth inhibitory zone, boron species in combination with B1 (Bacillus subtilis [5]): effective

SMILES: COC(=O)c1ccc(B(O)O)cc1 [4-methoxycarbonyl phenylboronic acid]
- growth inhibitory zone, boron species in combination with B1 (Bacillus subtilis [5]): effective
